Data as given in patent publication US20240382537A1, “Genetically Modified Mycoplasma Bacteria Active Against Heterogenous Bacterial Biofilms” (priority 2021, published 2024).

Key:
P. aeruginosa biofilm = experiment: In vitro P. aeruginosa biofilm degradation assay (crystal violet); format: cell-based, Pseudomonas aeruginosa; settings: for effect of the minimal killing concentration when cells are organized in a biofilm: antibiotic alone, P. aeruginosa clinical isolates
Experimental: In Vitro P. aeruginosa Biofilm Degradation Assay
M. pneumoniae spp. was grown in a T25 flask for three days with 5 ml of Hayflick media without antibiotics, and then the conditioned supernatant was filtered with 0.33 μm sterile syringe filters. P. aeruginosa strains were grown overnight in Erlenmeyer flasks (20 μl stock in 20 ml TSB) at 37° C. on shaking 600 rpm, and then diluted to an OD600 of 0.15 in TSB. Diluted Pseudomonas culture (100 μl) was then added in triplicates to sterile 96-well polystyrene microtiter plates. Cells were incubated statically overnight at 25°° C. to allow for biofilm formation. Biofilms were washed with PBS the following day to remove non-adherent cells and TSB media. Treatment of 50-100 µl of M. pneumoniae-conditioned filtered medium were added to the wells (using at least triplicates), and plates were incubated at 37° C. for 4 h. After incubation, wells were washed with PBS, stained with 150 μl of 0.1% (w/v) crystal violet for 10 min and washed three times with PBS. The dye was solubilized by addition of 100 μl of 95% (v/v) ethanol and incubated for 10 min. Absorbance was measured at 595 nm using a TECAN plate reader.

P. aeruginosa cells = experiment: Effect of antibiotic concentrations on growth of P. aeruginosa isolates in suspension; format: cell-based, Pseudomonas aeruginosa; settings: clinical isolates SAT290 and C117, suspension
Source text: (§1) We studied a possible increase of the biofilm dispersal activity of CV8_HA strain, that expresses dispersal agents against P. aeruginosa, when combined with antibiotics. We used two different clinical isolates of P. aeruginosa (SAT290 and C117) and two different standard of care antibiotics (Ceftazidime-Avibactam and Piperacillin-Tazobactam). First, we studied the effect of different concentrations of these antibiotics on the growth of P. aeruginosa isolates and M. pneumoniae. […] Therefore, we studied the degradation of the biofilm of the P. aeruginosa clinical isolates when exposed to the supernatant of CV8_HA strains with or without these antibiotics (FIG. 8).

M. pneumoniae = experiment: Effect of antibiotics on growth of M. pneumoniae; format: cell-based, Mycoplasma pneumoniae
Source text: as §1

## Piperacillin-Tazobactam
P. aeruginosa biofilm
  effect of the minimal killing concentration when cells are organized in a biofilm: has no effect
P. aeruginosa cells
  minimal concentration that kills P. aeruginosa cells when grown in suspension: > 5 µg/mL
M. pneumoniae
  susceptibility of M. pneumoniae to the antibiotic: naturally resistant

## Ceftazidime-Avibactam
P. aeruginosa biofilm
  effect of the minimal killing concentration when cells are organized in a biofilm: has no effect
P. aeruginosa biofilm; clinical isolate SAT290 (FIG. 8A)
  antibiotic activity on biofilm when combined with CV8_HA supernatant: becomes active on the biofilm
P. aeruginosa cells
  minimal concentration that kills P. aeruginosa cells when grown in suspension: > 15 µg/mL
M. pneumoniae
  susceptibility of M. pneumoniae to the antibiotic: naturally resistant
